Assay results: patent US20230393148A1, “KITS, REAGENTS AND METHODS FOR THE ASSESSMENT OF LIVER DISEASES” (The General Hospital Corporation, priority 2020, published 2023)
* marks the point of attachment. Hexenoyl(3E) = CC/C=C/CC(=O)*

Tests used:
CASP8 = experiment: Plasma CASP8 by Olink proximity extension assay, randomized trial of tesamorelin vs placebo; format: in vivo, human; details: HIV-associated NAFLD, tesamorelin 2 mg daily, change over 12 months, plasma NPX, mean ± SD, n = 20
Method: (§1) A randomized, double blind trial in which individuals with HIV-associated NAFLD were assigned to receive the growth hormone-releasing hormone (GHRH) analogue tesamorelin 2 mg daily or identical placebo for 12 months (7). […] Changes in circulating levels of proteins corresponding to top leading-edge genes in pathways responsive to tesamorelin between treatment groups were investigated, and the relationships of these proteins to histologic, radiographic, and transcriptomic indices was assessed to identify plasmatic markers of NAFLD/NASH and elucidate potential mechanisms of tesamorelin response.
(§2) 61 men and women 18-70 years old who had documented HIV infection and liver steatosis as defined by hepatic fat fraction ≥5% on ^1H-magnetic resonance spectroscopy (^1H-MRS) were enrolled. […]
(§3) Study procedures for the parent clinical trial have been described in detail elsewhere (7, 9). […] Serum IGF-1 was measured using standard techniques (Quest Laboratories).
(§4) For this analysis, change in targeted proteins over 12 months was assessed using an Olink® Multiplex proximity extension assay (PEA) platform. The PEA is an affinity-based assay that characterizes abundance levels of pre-determined sets of proteins. […] The resultant DNA sequence is detected and quantified using standard real-time PCR on the Fluidigm BioMark™ HD real-time PCR platform. […]

CCL20 = experiment: Plasma CCL20 by Olink proximity extension assay, randomized trial of tesamorelin vs placebo; format: in vivo, human; details: HIV-associated NAFLD, tesamorelin 2 mg daily, change over 12 months, plasma NPX, mean ± SD, n = 20
Method: as §1, §2, §3, §4

CRTAM = experiment: Plasma CRTAM by Olink proximity extension assay, randomized trial of tesamorelin vs placebo; format: in vivo, human; details: HIV-associated NAFLD, tesamorelin 2 mg daily, change over 12 months, plasma NPX, mean ± SD, n = 20
Method: as §1, §2, §3, §4

CSF1 = experiment: Plasma CSF1 by Olink proximity extension assay, randomized trial of tesamorelin vs placebo; format: in vivo, human; details: HIV-associated NAFLD, tesamorelin 2 mg daily, change over 12 months, plasma NPX, mean ± SD, n = 20
Method: as §1, §2, §3, §4

CXCL12 = experiment: Plasma CXCL12 by Olink proximity extension assay, randomized trial of tesamorelin vs placebo; format: in vivo, human; details: HIV-associated NAFLD, tesamorelin 2 mg daily, change over 12 months, plasma NPX, mean ± SD, n = 20
Method: as §1, §2, §3, §4

NCR1 = experiment: Plasma NCR1 by Olink proximity extension assay, randomized trial of tesamorelin vs placebo; format: in vivo, human; details: HIV-associated NAFLD, tesamorelin 2 mg daily, change over 12 months, plasma NPX, mean ± SD, n = 20
Method: as §1, §2, §3, §4

TGFB1 = experiment: Plasma TGFB1 by Olink proximity extension assay, randomized trial of tesamorelin vs placebo; format: in vivo, human; details: HIV-associated NAFLD, tesamorelin 2 mg daily, change over 12 months, plasma NPX, mean ± SD, n = 20
Method: as §1, §2, §3, §4

TNFRSF21 = experiment: Plasma TNFRSF21 by Olink proximity extension assay, randomized trial of tesamorelin vs placebo; format: in vivo, human; details: HIV-associated NAFLD, tesamorelin 2 mg daily, change over 12 months, plasma NPX, mean ± SD, n = 20
Method: as §1, §2, §3, §4

VEGFA = experiment: Plasma VEGFA by Olink proximity extension assay, randomized trial of tesamorelin vs placebo; format: in vivo, human; details: HIV-associated NAFLD, tesamorelin 2 mg daily, change over 12 months, plasma NPX, mean ± SD, n = 20
Method: as §1, §2, §3, §4

hallmark gene pathways = details: liver biopsy, pre- to post-treatment (12 months), tesamorelin versus placebo, GSEA FDR <0.05; cited from earlier work

trans-3-hexenoyl-GHRH(1-44)-NH2 ({Hexenoyl(3E)}-YADAIFTNSYRKVLGQLSARKLLQDIMSRQQGESNQERGARARL-NH2) [Tesamorelin]
Log2-Fold change plasma CASP8 (CASP8): −0.37 ± 0.72 | Log2-Fold change plasma CCL20 (CCL20): −0.28 ± 0.88 | Log2-Fold change plasma CCL20 (CCL20; listed as tesamorelin): −0.28±0.88 | Log2-Fold change plasma CRTAM (CRTAM): −0.35 ± 0.73 | Log2-Fold change plasma CSF1 (CSF1): −0.17±0.21 | Log2-Fold change plasma CSF1 (CSF1; listed as tesamorelin): −0.17±0.21 | Log2-Fold change plasma CXCL12 (CXCL12): −0.03 ± 0.18 | Log2-Fold change plasma NCR1 (NCR1): −0.20 ± 0.52 | Log2-Fold change plasma TGFB1 (TGFB1): −0.35±0.56 | Log2-Fold change plasma TGFB1 (TGFB1; listed as tesamorelin): −0.35±0.56 | Log2-Fold change plasma TNFRSF21 (TNFRSF21): −0.13 ± 0.22 | Log2-Fold change plasma VEGFA (VEGFA): −0.20±0.35 | Log2-Fold change plasma VEGFA (VEGFA; listed as tesamorelin): −0.20±0.35 | 13 hepatic gene sets involved in inflammation, tissue repair, and cell division, regulation with treatment (hallmark gene pathways): downregulated | Hepatic gene set pertaining to oxidative phosphorylation, regulation with treatment (hallmark gene pathways): upregulated
